Measured values: ChEMBL document CHEMBL4622995, “Aryl Ether-Derived Sphingosine-1-Phosphate Receptor (S1P1) Modulators: Optimization of the PK, PD, and Safety Profiles” (ACS Med Chem Lett, 2020)

Columns and labels:
[1] = Cardiotoxicity in human iPSC derived cardiomyocytes assessed as reduction in beating rate at 1 nM; format: toxicity, cell-based, Cardiac muscle cell
[2] = Cardiotoxicity in human iPSC derived cardiomyocytes assessed as reduction in beating rate at 10 nM; format: toxicity, cell-based, Cardiac muscle cell
Rattus norvegicus [3] = experiment: Reduction in circulating lymphocytes count in Lewis rat peripheral blood at 2 mg/kg, po measured after 24 hrs by hematology analyzer based analysis; format: functional
[4] = Elimination half-life in Lewis rat at 2 mg/kg, po; format: ADME, organism-based; conditions: in vivo, read-out: beta t1/2 (converted)
Rattus norvegicus [5] = experiment: Reduction in circulating lymphocytes count in Lewis rat peripheral blood at 0.1 mg/kg, po measured after 24 hrs by hematology analyzer based analysis; format: functional
Rattus norvegicus [6] = experiment: Reduction in circulating lymphocytes count in Lewis rat peripheral blood at 0.3 mg/kg, po measured after 24 hrs by hematology analyzer based analysis; format: functional
[7] = Elimination half-life in Lewis rat at 0.3 mg/kg, po; format: ADME, organism-based; conditions: in vivo, read-out: beta t1/2 (converted)
[8] = Pulmonary toxicity in Lewis rat assessed as elevation of BAL protein content at 2 mg/kg, po; format: organism-based; conditions: in vivo
Rattus norvegicus [9] = experiment: Reduction in circulating lymphocytes count in po dosed Lewis rat peripheral blood measured after 24 hrs by hematology analyzer based analysis; format: functional
[10] = Pulmonary toxicity in Lewis rat assessed as elevation of BAL protein content at >30XED50, po; conditions: in vivo
Rattus norvegicus [11] = experiment: Reduction in circulating lymphocytes count in Lewis rat peripheral blood at 0.05 mg/kg, po measured after 24 hrs by hematology analyzer based analysis; format: functional
Rattus norvegicus [12] = experiment: Reduction in circulating lymphocytes count in Lewis rat peripheral blood at 1 mg/kg, po measured after 24 hrs by hematology analyzer based analysis; format: functional
Rattus norvegicus [13] = experiment: Reduction in circulating lymphocytes count in Lewis rat peripheral blood at 1.5 mg/kg, po measured after 24 hrs by hematology analyzer based analysis; format: functional
Sphingosine kinase 2 [14] = biological target: T1, Sphingosine kinase 2 (Rattus norvegicus, UniProt A6JB73); experiment: Drug metabolism in Sprague-Dawley rat assessed as SphK2-mediated compound phosphorylation by measuring ratio of phosphorylated compound to parent compound measured after 24 hrs; format: ADME
T1 sequence (A6JB73 whole entry): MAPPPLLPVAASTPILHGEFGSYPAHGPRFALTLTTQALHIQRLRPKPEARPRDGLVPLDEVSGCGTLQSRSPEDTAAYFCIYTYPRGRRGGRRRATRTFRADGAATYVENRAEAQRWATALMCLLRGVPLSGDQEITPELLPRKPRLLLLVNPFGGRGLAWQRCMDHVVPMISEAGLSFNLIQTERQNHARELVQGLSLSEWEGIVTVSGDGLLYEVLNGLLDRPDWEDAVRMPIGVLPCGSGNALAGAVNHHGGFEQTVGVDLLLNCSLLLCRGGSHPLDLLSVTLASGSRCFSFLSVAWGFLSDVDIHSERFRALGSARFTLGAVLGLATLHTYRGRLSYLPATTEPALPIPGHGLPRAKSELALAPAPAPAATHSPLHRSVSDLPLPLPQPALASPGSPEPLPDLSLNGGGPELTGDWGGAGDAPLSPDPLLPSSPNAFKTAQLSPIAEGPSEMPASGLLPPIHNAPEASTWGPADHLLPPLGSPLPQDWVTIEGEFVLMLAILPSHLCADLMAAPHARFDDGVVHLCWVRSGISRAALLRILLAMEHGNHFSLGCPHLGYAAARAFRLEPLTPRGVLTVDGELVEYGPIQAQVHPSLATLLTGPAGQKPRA

[15] = Drug metabolism in Cynomolgous monkey assessed as SphK2-mediated compound phosphorylation by measuring ratio of phosphorylated compound to parent compound measured after 24 hrs; format: ADME, Macaca fascicularis; conditions: cynomolgus monkey
Sphingosine kinase 2 [16] = biological target: T2, Sphingosine kinase 2 (Homo sapiens, UniProt Q9NRA0); experiment: Drug metabolism in human assessed as SphK2-mediated compound phosphorylation by measuring ratio of phosphorylated compound to parent compound measured after 24 hrs; format: ADME
T2 sequence (Q9NRA0 whole entry): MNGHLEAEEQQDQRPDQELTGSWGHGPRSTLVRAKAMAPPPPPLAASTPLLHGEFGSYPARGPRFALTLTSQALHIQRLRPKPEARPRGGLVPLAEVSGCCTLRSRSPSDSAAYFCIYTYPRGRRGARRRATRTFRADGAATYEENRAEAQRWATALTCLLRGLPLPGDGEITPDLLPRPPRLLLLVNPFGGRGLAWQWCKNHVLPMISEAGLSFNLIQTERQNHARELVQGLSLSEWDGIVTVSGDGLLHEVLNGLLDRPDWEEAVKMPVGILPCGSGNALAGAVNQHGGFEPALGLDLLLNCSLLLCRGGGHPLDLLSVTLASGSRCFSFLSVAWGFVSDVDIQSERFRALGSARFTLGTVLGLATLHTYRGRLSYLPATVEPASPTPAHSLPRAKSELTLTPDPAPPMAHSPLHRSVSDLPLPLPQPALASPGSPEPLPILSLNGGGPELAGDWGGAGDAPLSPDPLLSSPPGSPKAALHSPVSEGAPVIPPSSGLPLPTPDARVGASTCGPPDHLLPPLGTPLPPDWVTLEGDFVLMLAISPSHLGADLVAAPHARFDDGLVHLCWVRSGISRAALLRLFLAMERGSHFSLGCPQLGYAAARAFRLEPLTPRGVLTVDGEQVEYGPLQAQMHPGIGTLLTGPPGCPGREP

[17] = Elimination half-life in po dose Lewis rat; format: ADME, organism-based; conditions: in vivo, read-out: beta t1/2
Homo sapiens = species: Homo sapiens; experiment: Reduction in absolute lymphocytes count in human at 1.5 mg/day; format: functional

CCCCCC[C@@H]1CCc2cc([C@H]3CC[C@](N)(COP(=O)(O)O)C3)ccc2C1 gave an inhibition at 0.001 µM [1] of 1% and an inhibition at 0.01 µM [2] of 32%.
With N[C@]1(CO)CC[C@H](c2ccc3c(c2)CC[C@@H](COc2ccc(F)cc2)C3)C1 the inhibition in vivo at 2 mg/kg (Rattus norvegicus [3]) was 74% and the half-life [4] was 46 h.
With COc1ccc(OC[C@@H]2CCc3cc([C@H]4CC[C@](N)(CO)C4)ccc3C2)cc1 the inhibition in vivo at 2 mg/kg (Rattus norvegicus [3]) was 47% and the half-life [4] was less than 10 h.
Compound COc1ccccc1CC[C@H]1CCc2cc([C@H]3CC[C@](N)(CO)C3)ccc2C1 has an inhibition in vivo at 0.1 mg/kg (Rattus norvegicus [5]) of 17%.
Compound COc1cccc(CO[C@H]2CCc3cc([C@H]4CC[C@](N)(CO)C4)ccc3C2)c1 has an inhibition in vivo at 0.3 mg/kg (Rattus norvegicus [6]) of 13%.
For N[C@]1(CO)CC[C@H](c2ccc3c(c2)CC[C@H](COCc2ccccc2)C3)C1, the inhibition in vivo at 0.3 mg/kg (Rattus norvegicus [6]) was 0%.
Compound N[C@]1(CO)CC[C@H](c2ccc3c(c2)CC[C@@H](COCc2ccccc2)C3)C1 has an inhibition in vivo at 0.3 mg/kg (Rattus norvegicus [6]) of 49% and a half-life [7] of 11 h.
COc1ccccc1CC[C@@H]1CCc2cc([C@H]3CC[C@](N)(COP(=O)(O)O)C3)ccc2C1 gave an inhibition at 0.001 µM [1] of 11% and an inhibition at 0.01 µM [2] of 27%.
COc1ccccc1OC[C@@H]1CCc2cc([C@H]3CC[C@](N)(COP(=O)(O)O)C3)ccc2C1 showed an inhibition at 0.001 µM [1] of 20% and an inhibition at 0.01 µM [2] of 43%.
For Cc1ccc(OC[C@@H]2CCc3cc([C@H]4CC[C@](N)(CO)C4)ccc3C2)cc1, the inhibition in vivo at 2 mg/kg (Rattus norvegicus [3]) was 20% and the half-life [4] was 35 h.
COc1ccccc1OC[C@@H]1CCc2cc([C@H]3CC[C@](N)(CO)C3)ccc2C1 gave an inhibition in vivo at 2 mg/kg (Rattus norvegicus [3]) of 85% and a half-life [4] of 14 h.
COc1cccc(OC[C@H]2CCc3cc([C@H]4CC[C@](N)(CO)C4)ccc3C2)c1 showed an inhibition in vivo at 0.3 mg/kg (Rattus norvegicus [6]) of 70%.
Compound N[C@]1(CO)CC[C@H](c2ccc3c(c2)CC[C@H](CSc2ccccc2)C3)C1 has an inhibition in vivo at 0.3 mg/kg (Rattus norvegicus [6]) of 29%.
Work on COc1ccc(OC[C@@H]2CCc3cc([C@H]4CC[C@](N)(CO)C4)ccc3C2)c(F)c1F yielded an inhibition in vivo at 2 mg/kg (Rattus norvegicus [3]) of 48%.
COc1ccccc1SC[C@@H]1CCc2cc([C@H]3CC[C@](N)(CO)C3)ccc2C1 gave an inhibition in vivo at 2 mg/kg (Rattus norvegicus [3]) of 78 to 79%, an Activity [8] of 67% and a half-life [4] of 24 h.
Work on COc1cccc(COC[C@@H]2CCc3cc([C@H]4CC[C@](N)(CO)C4)ccc3C2)c1 yielded an inhibition in vivo at 0.3 mg/kg (Rattus norvegicus [6]) of 40%.
Work on COc1cccc(OC[C@@H]2CCc3cc([C@H]4CC[C@](N)(COP(=O)(O)O)C4)ccc3C2)c1 yielded an inhibition at 0.001 µM [1] of 13% and an inhibition at 0.01 µM [2] of 30%.
Compound COc1cccc(OC[C@@H]2CCc3cc([C@H]4CC[C@](N)(CO)C4)ccc3C2)c1 has an inhibition in vivo at 0.3 mg/kg (Rattus norvegicus [6]) of 80%, an inhibition in vivo at 2 mg/kg (Rattus norvegicus [3]) of 86% and an ED50 (Rattus norvegicus [9]) of less than 0.05 mg/kg. For the same compound, the Activity [10] was “Non-Toxic”, the inhibition in vivo at 0.05 mg/kg (Rattus norvegicus [11]) was 72% and the inhibition in vivo at 1 mg/kg (Rattus norvegicus [12]) was 80%. For the same compound, the inhibition in vivo at 1.5 mg/kg (Rattus norvegicus [13]) was 81%, the Ratio (Sphingosine kinase 2 [14]) was 1.5 and the Ratio [15] was 1.3. It also gave a half-life [7] of 24 h and a half-life [4] of 24 h.
For COc1ccccc1SC[C@@H]1CCc2cc([C@H]3CC[C@](N)(COP(=O)(O)O)C3)ccc2C1, the inhibition at 0.001 µM [1] was 16% and the inhibition at 0.01 µM [2] was 26%.
With N[C@]1(COP(=O)(O)O)CC[C@H](c2ccc3c(c2)CC[C@@H](COCc2ccccc2)C3)C1 the inhibition at 0.001 µM [1] was 16% and the inhibition at 0.01 µM [2] was 52%.
With COc1cccc(CO[C@@H]2CCc3cc([C@H]4CC[C@](N)(CO)C4)ccc3C2)c1 the inhibition in vivo at 0.3 mg/kg (Rattus norvegicus [6]) was 15%.
Compound COc1cccc(SC[C@@H]2CCc3cc([C@H]4CC[C@](N)(COP(=O)(O)O)C4)ccc3C2)c1 has an inhibition at 0.001 µM [1] of 30% and an inhibition at 0.01 µM [2] of 44%.
COc1ccc(OC[C@@H]2CCc3cc([C@H]4CC[C@](N)(CO)C4)ccc3C2)cc1C(C)(C)C gave an inhibition in vivo at 2 mg/kg (Rattus norvegicus [3]) of 53%.
Compound N[C@]1(CO)CC[C@H](c2ccc3c(c2)CC[C@@H](CSc2ccccc2)C3)C1 has an inhibition in vivo at 0.3 mg/kg (Rattus norvegicus [6]) of 31%, an inhibition in vivo at 2 mg/kg (Rattus norvegicus [3]) of 73% and a half-life [4] of 20 h.
Compound COc1ccc(COC[C@@H]2CCc3cc([C@H]4CC[C@](N)(CO)C4)ccc3C2)cc1 has an inhibition in vivo at 0.3 mg/kg (Rattus norvegicus [6]) of 33%.
COc1cccc(SC[C@@H]2CCc3cc([C@H]4CC[C@](N)(CO)C4)ccc3C2)c1 showed an inhibition in vivo at 2 mg/kg (Rattus norvegicus [3]) of 81% and a half-life [4] of 21 h.
In the case of CCCCCC[C@@H]1CCc2cc([C@H]3CC[C@](N)(CO)C3)ccc2C1 [BMS-986104], the ED50 (Rattus norvegicus [9]) is reported as 0.25 mg/kg, the Ratio (Sphingosine kinase 2 [14]) is reported as 2.5 and the Ratio [15] is reported as 0.3. For the same compound, the Ratio (Sphingosine kinase 2 [16]) was 0.1 and the half-life [17] was greater than 100 h.
In the case of COc1ccccc1CC[C@@H]1CCc2cc([C@H]3CC[C@](N)(CO)C3)ccc2C1 [UDIFITIMOD], the “inhibition (INH)” value (Homo sapiens) is reported as greater than 80%, the inhibition in vivo at 0.1 mg/kg (Rattus norvegicus [5]) is reported as 53% and the inhibition in vivo at 2 mg/kg (Rattus norvegicus [3]) is reported as 81%. It also gave an ED50 (Rattus norvegicus [9]) of 0.1 mg/kg, a Ratio (Sphingosine kinase 2 [14]) of 5.2 and a Ratio [15] of 1. It also gave a Ratio (Sphingosine kinase 2 [16]) of 0.6 and a half-life [4] of 27 h.
